According to US4738929A, “Purified culture of streptomyces galanosa” (Warner-Lambert Company, priority 1986, dated 1988):
Converted amounts (≈) assume the structure as drawn. Where a name gives a salt, the structure may show the parent alone.

Key:
[1] = tested on: P388 leukemia cell line; assay: In vivo antineoplastic activity against transplanted P388 leukemia in mice; details: Days 1-9
Description: The in vivo antineoplastic activity of representative compounds of the present invention against the transplanted P388 leukemia cell line in mice was determined in accordance with the protocol given in Geran et al, cited above. The mice were infected intraperitoneally on Day 0 and then administered the indicated doses of the test compounds on Days 1-9.

[2] = tested on: Bacillus cereus; assay: Microtiter dilution MIC, Bacillus cereus; format: cell-based; details: Mueller-Hinton broth, 37° C., 16-24 hours, read-out: Minimal Inhibitory Concentration
Description: (§1) The compounds of the present invention and their pharmaceutically acceptable salts are useful as antimicrobial agents. The antimicrobial activity of the representative examples of compounds in accordance with the present invention against five species of gram-negative bacteria, seven species of gram-positive bacteria, four species of yeast, and two species of fungi were determined using the microtiter dilution technique. This method is described by T. B. Conrath, "Handbook of Microtiter Procedures," Dynatech Corp., Cambridge, Mass., USA (1972); and T. L. Gavan et al, "Microdilution Test Procedures," in Manual of Clinical Microbiology, E. H. Lennette, Ed., American Soc. for Microbiol., Washington, D.C., U.S.A. (1980).
(§2) Each agent is suspended in a nonaqueous solvent for several minutes to sterilize the compound or, if the compound is completely soluble in water, the aqueous solution is sterilized by passage through a 0.2-0.45 micrometer membrane filter.
(§3) Each well of a sterile 96-well microdilution tray is filled under aseptic conditions with 0.1 ml of Mueller-Hinton broth (for antibacterial tests), or yeast extract-peptone-dextrose or buffered supplemented yeast nitrogen base (for tests with yeasts or fungi).
(§4) […] of the test compound solution is added to each of the eight wells in the first row of the tray. A microdilutor apparatus is used to simultaneously mix the contents of these wells and to transfer aliquots to each succeeding row of cells to obtain a range of serially diluted solutions. The last row of wells is untreated and serves as a control.
(§5) Each well containing broth and test compound is inoculated with about ten microliters of inoculum of the test microorganism. One well in the last row of wells (which is free of test compound) is not inoculated and is used as a sterility control The trays are sealed and incubated at 37° C. for 16-24 hours (for bacteria) or at 28° C. for 36-48 hours (yeasts or fungi). During incubation, the inoculated medium is shaken at 100-140 rpm to increase contact between the microorganism cells and test compounds.
(§6) After the incubation period, each plate is evaluated by determining the lowest concentration of test compound required to inhibit the growth of the microorganism and recorded as a minimal inhibitory concentration (MIC).

[3] = tested on: Rhodotorula aurantiaca; assay: Microtiter dilution MIC, Rhodotorula aurantiaca; format: cell-based; details: Buckleyzyma aurantiaca; yeasts or fungi, 28° C., 36-48 hours; read-out: Minimal Inhibitory Concentration
Description: as §1, §2, §3, §4, §5, §6

[4] = tested on: Salmonella typhimurium; assay: Microtiter dilution MIC, Salmonella typhimurium; format: cell-based; details: Salmonella enterica, Mueller-Hinton broth, 37° C., 16-24 hours, read-out: Minimal Inhibitory Concentration
Description: as §1, §2, §3, §4, §5, §6

[5] = tested on: Branhamella catarrhalis; assay: Microtiter dilution MIC, Branhamella catarrhalis; format: cell-based; details: Moraxella catarrhalis; Mueller-Hinton broth, 37° C., 16-24 hours; read-out: Minimal Inhibitory Concentration
Description: as §1, §2, §3, §4, §5, §6

[6] = tested on: Saccharomyces cerevisiae; assay: Microtiter dilution MIC, Saccharomyces cerevisiae; format: cell-based; details: yeasts or fungi, 28° C., 36-48 hours, read-out: Minimal Inhibitory Concentration
Description: as §1, §2, §3, §4, §5, §6

[7] = tested on: Rhizopus japonicus; assay: Microtiter dilution MIC, Rhizopus japonicus; format: cell-based; details: yeasts or fungi, 28° C., 36-48 hours, read-out: Minimal Inhibitory Concentration
Description: as §1, §2, §3, §4, §5, §6

[8] = tested on: Staphylococcus aureus; assay: Microtiter dilution MIC, Staphylococcus aureus; format: cell-based; details: Mueller-Hinton broth, 37° C., 16-24 hours, read-out: Minimal Inhibitory Concentration
Description: as §1, §2, §3, §4, §5, §6

[9] = tested on: Streptococcus pyogenes; assay: Microtiter dilution MIC, Streptococcus pyogenes; format: cell-based; details: Mueller-Hinton broth, 37° C., 16-24 hours, read-out: Minimal Inhibitory Concentration
Description: as §1, §2, §3, §4, §5, §6

[10] = tested on: Schizosaccharomyces pombe; assay: Microtiter dilution MIC, Schizosaccharomyces pombe; format: cell-based; details: yeasts or fungi, 28° C., 36-48 hours, read-out: Minimal Inhibitory Concentration
Description: as §1, §2, §3, §4, §5, §6

[11] = tested on: Bacillus megaterium; assay: Microtiter dilution MIC, Bacillus megaterium; format: cell-based; details: Priestia megaterium; Mueller-Hinton broth, 37° C., 16-24 hours; read-out: Minimal Inhibitory Concentration
Description: as §1, §2, §3, §4, §5, §6

[12] = tested on: Streptococcus faecalis; assay: Microtiter dilution MIC, Streptococcus faecalis; format: cell-based; details: Enterococcus faecalis; Mueller-Hinton broth, 37° C., 16-24 hours; read-out: Minimal Inhibitory Concentration
Description: as §1, §2, §3, §4, §5, §6

[13] = tested on: Alcaligenes viscolactis; assay: Microtiter dilution MIC, Alcaligenes viscolactis; format: cell-based; details: Mueller-Hinton broth, 37° C., 16-24 hours, read-out: Minimal Inhibitory Concentration
Description: as §1, §2, §3, §4, §5, §6

[14] = tested on: Torulopsis albida; assay: Microtiter dilution MIC, Torulopsis albida; format: cell-based; details: Naganishia albida; yeasts or fungi, 28° C., 36-48 hours; read-out: Minimal Inhibitory Concentration
Description: as §1, §2, §3, §4, §5, §6

[15] = tested on: Streptococcus pneumoniae; assay: Microtiter dilution MIC, Streptococcus pneumoniae; format: cell-based; details: Mueller-Hinton broth, 37° C., 16-24 hours, read-out: Minimal Inhibitory Concentration
Description: as §1, §2, §3, §4, §5, §6

[16] = tested on: Pseudomonas aeruginosa; assay: Microtiter dilution MIC, Pseudomonas aeruginosa; format: cell-based; details: Mueller-Hinton broth, 37° C., 16-24 hours, read-out: Minimal Inhibitory Concentration
Description: as §1, §2, §3, §4, §5, §6

[17] = tested on: Escherichia coli (PD-04863); assay: Microtiter dilution MIC, Escherichia coli (PD-04863); format: cell-based; details: Mueller-Hinton broth, 37° C., 16-24 hours, read-out: Minimal Inhibitory Concentration
Description: as §1, §2, §3, §4, §5, §6

[18] = tested on: Mucor paraciticus; assay: Microtiter dilution MIC, Mucor paraciticus; format: cell-based; details: yeasts or fungi, 28° C., 36-48 hours, read-out: Minimal Inhibitory Concentration
Description: as §1, §2, §3, §4, §5, §6

[19] = tested on: Micrococcus luteus; assay: Microtiter dilution MIC, Micrococcus luteus; format: cell-based; details: Mueller-Hinton broth, 37° C., 16-24 hours, read-out: Minimal Inhibitory Concentration
Description: as §1, §2, §3, §4, §5, §6

[20] = tested on: L1210 murine leukemia cell line; assay: Cytotoxic activity against L1210 murine leukemia in vitro; format: cell-based; details: Mus musculus, 50% inhibition of growth, duplicate tests
Description: The antineoplastic activities of representative compounds of the present invention against the L1210 murine leukemia cell line in vitro were determined using the methods detailed by R. I. Geran et al, "Protocols for Screening Chemical Agents and Natural Products Against Animal Tumors and Other Biological Systems," 3rd Edition, Cancer Chemotherapy Reports, Part 3, Vol. 3, pages 1-87 (1972) which is incorporated herein by reference.
The IC50 values are the concentration of compound required to produce 50% inhibition of growth of the cell line.

For `Cc1c(O)c(C=O)c2nc3c(O)ccc(C(=O)NCCN(C)C)c3nc2c1O` [Example 9, N-[2-(dimethylamino)ethyl]-6-formyl-4,7,9-trihydroxy-8-methyl-1-phenazinecarboxamide, methanesulfonate salt], the “% T/C” value ([1]; 5 mg/kg/injection) was 139%, the “% T/C” value ([1]; 10 mg/kg/injection) was 143% and the “% T/C” value ([1]; 20 mg/kg/injection) was 144%. The “% T/C” value ([1]; 40 mg/kg/injection) was 170% and the “% T/C” value ([1]; 80 mg/kg/injection) was 219%.

For `Cc1c(O)c(C=O)c2nc3c(O)ccc(C(=O)O)c3nc2c1O` [Example 11, 6-formyl-4,7,9-trihydroxy-8-methyl-1-phenazinecarboxylic acid], the MIC [2] was 37 µg/mL (≈ 118 µM), the MIC [3] was 12.3 µg/mL (≈ 39.1 µM) and the MIC [4] was 111 µg/mL (≈ 353 µM). The MIC [5] was 12.3 µg/mL (≈ 39.1 µM), the MIC [6] was 111 µg/mL (≈ 353 µM) and the MIC [7] was 37 µg/mL (≈ 118 µM). It also gave an MIC [8] of 37 µg/mL (≈ 118 µM), an MIC [9] of 111 µg/mL (≈ 353 µM) and an MIC [10] of 37 µg/mL (≈ 118 µM). For the same compound, the MIC [11] was 111 µg/mL (≈ 353 µM), the MIC [12] was 111 µg/mL (≈ 353 µM) and the MIC [13] was 12.3 µg/mL (≈ 39.1 µM). The MIC [14] was 111 µg/mL (≈ 353 µM), the MIC [15] was 111 µg/mL (≈ 353 µM) and the MIC [16] was 1000 µg/mL (≈ 3180 µM). The MIC [17] was 111 µg/mL (≈ 353 µM), the MIC [18] was 37 µg/mL (≈ 118 µM) and the MIC [19] was 111 µg/mL (≈ 353 µM). For the same compound, the IC50 [20] was 3.47 µg/mL (≈ 11 µM).

For `CN(C)CCNC(=O)c1ccc(O)c2nc3c(C=O)c(O)cc(O)c3nc12` [Example 14, N-[2-(dimethylamino)ethyl]-6-formyl-4,7,9-trihydroxy-1-phenazinecarboxamide], the MIC [2] was 37 µg/mL (≈ 99.9 µM), the MIC [3] was 37 µg/mL (≈ 99.9 µM) and the MIC [4] was 111 µg/mL (≈ 300 µM). For the same compound, the MIC [5] was 12.3 µg/mL (≈ 33.2 µM), the MIC [6] was > 1000 µg/mL and the MIC [7] was 333 µg/mL (≈ 899 µM). For the same compound, the MIC [8] was 37 µg/mL (≈ 99.9 µM), the MIC [9] was 111 µg/mL (≈ 300 µM) and the MIC [10] was 111 µg/mL (≈ 300 µM). For the same compound, the MIC [11] was 111 µg/mL (≈ 300 µM), the MIC [12] was 111 µg/mL (≈ 300 µM) and the MIC [13] was 12.3 µg/mL (≈ 33.2 µM). It also gave an MIC [14] of 333 µg/mL (≈ 899 µM), an MIC [15] of 111 µg/mL (≈ 300 µM) and an MIC [16] of 1000 µg/mL (≈ 2700 µM). For the same compound, the MIC [17] was 111 µg/mL (≈ 300 µM), the MIC [18] was 333 µg/mL (≈ 899 µM) and the MIC [19] was 111 µg/mL (≈ 300 µM).

Compound `CCN(CC)CCNC(=O)c1ccc(O)c2nc3c(C=O)c(O)c(C)c(O)c3nc12` [Example 16, N-[2-(diethylamino)ethyl]-6-formyl-4,7,9-trihydroxy-8-methyl-1-phenazinecarboxamide] has an MIC [2] of 12.3 µg/mL (≈ 29.8 µM), an MIC [3] of 37 µg/mL (≈ 89.7 µM) and an MIC [4] of 37 µg/mL (≈ 89.7 µM). It also gave an MIC [5] of 12.3 µg/mL (≈ 29.8 µM), an MIC [6] of 111 µg/mL (≈ 269 µM) and an MIC [7] of 111 µg/mL (≈ 269 µM). It also gave an MIC [8] of 37 µg/mL (≈ 89.7 µM), an MIC [9] of 37 µg/mL (≈ 89.7 µM) and an MIC [10] of 37 µg/mL (≈ 89.7 µM). For the same compound, the “% T/C” value ([1]; 19 mg/kg/injection) was 136%, the “% T/C” value ([1]; 37.5 mg/kg/injection) was 147% and the “% T/C” value ([1]; 75 mg/kg/injection) was 166%. The “% T/C” value ([1]; 150 mg/kg/injection) was 213%, the MIC [11] was 37 µg/mL (≈ 89.7 µM) and the MIC [12] was 111 µg/mL (≈ 269 µM). It also gave an MIC [13] of 12.3 µg/mL (≈ 29.8 µM), an MIC [14] of 37 µg/mL (≈ 89.7 µM) and an MIC [15] of 37 µg/mL (≈ 89.7 µM). The MIC [16] was 333 µg/mL (≈ 807 µM), the MIC [17] was 37 µg/mL (≈ 89.7 µM) and the MIC [18] was 111 µg/mL (≈ 269 µM). It also gave an MIC [19] of 12.3 µg/mL (≈ 29.8 µM) and an IC50 [20] of 0.33 µg/mL (≈ 0.8 µM).
